# Reference: patent US10627402B2, “Peptides for targeting gastric cancer, and medical use tehreof” (priority 2014, dated 2020)
# Columns and labels:
# [1] = tested on: patient's gastric cancer tissue; test: Ex vivo imaging of extracted cancer tissue (IVIS spectrum, ROI values); type: in vivo, mouse; parameters: unit not given here
# Procedure: (§1) Considering overcoming limitations that existing animal models transplanted with cultured cancer cells had, an ideal animal model of cancer similar to actual patient's cancer microenvironments is prepared. Then, to establish an animal model that can confirm influence of an irradiation-dependent cancer tissue, first, a mouse model transplanted with a cancer tissue that was extracted from an actual patient having gastric cancer was established. Regarding the establishment of such an animal model, the cancer tissue extracted from a patient was cultured in an NOD/SCID mouse. Once the cancer tissue was found in the NOD/SCID mouse, subculturing was carried out by using a Balb/c nude mouse, beginning from the next subculturing. In detail, after an NOD/SCID mouse was anesthetized via intraperitoneal injection of anesthetics, the cancer tissue was cut into pieces each having a size of 3×3 mm. Next, each of both flanks of the NOD/SCID mouse was transplanted with a piece of the cut cancer tissues, treated with a mixed solution of 100 μl of 100 IU/ml penicillin, 100 μg/ml streptomycin, 100 μg/ml gentamicin, and 2.5 μg/ml amphotericin B antibiotics, and then, sutured. The NOD/SCID mouse was recovered on a heating pad (for about 2 hours). Afterwards, the formation and growth of tumors were observed every week. When the cancer tissues grew to a size of 400-500 mm^3, the cancer tissues were separated and cut into pieces each having a size of 3×3 mm for subculturing. Next, for next subculturing, a nude mouse was anesthetized via intraperitoneal injection of anesthetics, and a piece of the cut cancer tissues was transplanted subcutaneously on the right thigh of the nude mouse. A transplantation site was changed from the flank to the both thighs so that irradiation can be locally done without affecting other organs during irradiation. That is, a mouse model in which a cancer tissue that underwent subculturing and was re-transplanted up to four times was formed was established. […] After having recovery time for no longer than 24 hours, in vivo peptide screening was performed. Here, as a control group in an irradiated population, a mouse model that was not irradiated among the same mouse models was used to screen a peptide.
# (§2) In particular, 1 μg/μl of N-hydroxysuccinimide esters of Cy5.5 (Amersham) was added to 1 mL of bicarbonate buffer (pH 8.3) having the phage concentration of 10^11 plaque forming units (pfu), and then, in a condition where a dark environment was maintained, […] a phage-surface protein was linked to the Cy5.5 fluorescent probe at room temperature for 3 hours. That is, loop peptide-expressing phages to which the Cy5.5 fluorescent probe was linked were each obtained by precipitation with 170 μl of 20% (w/v) PEG 8000/2.5 M NaCl solution and purification. To determine a proportion of the Cy5.5 fluorescent probe linked to each of the finally obtained phage samples, an IVIS spectrum imaging system (Xenogen) was used for measurement, and region of interest (ROI) values were determined using the software program of a corresponding device. Accordingly, it was confirmed that the Cy5.5 fluorescent probe was linked to each of the phage samples at almost the same linking proportion.
# (§3) After each of the prepared phages expressing the loop peptide was injected into the ratio-sensitive xenograft mouse model of Example 1 and the control group through the vein tail of the mouse, images were measured for 2 days immediately after the injection, thereby confirming images showing in vivo circulation of the peptide and the targeting of the peptide only in the cancer tissue while the targeting to other organs and tissues gradually disappeared. […] In addition, to verify which part of the cancer tissue was targeted by each of the loop peptide-expressing phages via ex vivo imaging, only the cancer tissue was separated and extracted, and the whole cancer tissue itself and the respective cancer tissue were subjected to fragmentation into several pieces. […]
# [2] = tested on: patient's gastric cancer tissue; test: In vivo imaging of Cy5.5-labeled peptide-expressing phages (IVIS spectrum, ROI values); parameters: species or system mouse; unit not given here; conditions: Cy5.5-labeled phage, tail vein injection, 2nd day
# Procedure: as §1, §2, §3
# [3] = tested on: patient's gastric cancer tissue; test: Titering of phages eluted from extracted cancer tissue, relative to tissue weight; type: in vivo, mouse
# Procedure: as §1
# After each of the prepared phages expressing the loop peptide was injected into the ratio-sensitive xenograft mouse model of Example 1 and the control group through the vein tail of the mouse, images were measured for 2 days immediately after the injection, thereby confirming images showing in vivo circulation of the peptide and the targeting of the peptide only in the cancer tissue while the targeting to other organs and tissues gradually disappeared. […] In addition, to verify which part of the cancer tissue was targeted by each of the loop peptide-expressing phages via ex vivo imaging, only the cancer tissue was separated and extracted, and the whole cancer tissue itself and the respective cancer tissue were subjected to fragmentation into several pieces.
# To compare targeting efficiency more accurately based on the results of FIGS. 5 and 6, the pieces of the extracted cancer tissue the pieces of the extracted cancer tissue were collected independently, and phages bound to the cancer tissues were eluted. The concentration of each of the eluted phages was measured according to titering, and due to different size and weight of the extracted cancer tissue, the weight of each cancer tissue was also measured in terms of establishing numerical standardization. In this regard, the amount of the identified phages was calculated relative to the weight of the cancer tissue. In addition, to more accurately quantify each imaging result, the in vivo imaging and the ex vivo imaging were confirmed by measuring ROI values that were determined using the IVIS spectrum (Xenogen) program, and the results thereof are shown in Table 2.
# [4] = Non-irradiated population as control
Substance,ex vivo ROI ([1]; Irradiated population (10 Gy)),"ex vivo ROI [1, 4]",in vivo ROI ([2]; Irradiated population (10 Gy)),"in vivo ROI [2, 4]","pfu/mg [3, 4]",pfu/mg ([3]; Irradiated population (10 Gy))
Cy5.5 [reference compound],1.00,1.00,1.00,1.00,,
"DVWHSAY [Peptide W3, 7-amino-acid loop peptide from non-irradiated population; tested as Cy5.5-labeled M13 phage expressing it]",,3.54,,1.90,8.1 pfu/mg,
"NRGDRIL [Peptide P3, 7-amino-acid loop peptide from irradiated population; tested as Cy5.5-labeled M13 phage expressing it]",77.85,,19.83,,,18.6 pfu/mg
"NWGDRIL [Peptide W1, 7-amino-acid loop peptide from non-irradiated population; tested as Cy5.5-labeled M13 phage expressing it]",,2.08,,1.86,11.8 pfu/mg,
"QRSLPSL [Peptide W2, 7-amino-acid loop peptide from non-irradiated population; tested as Cy5.5-labeled M13 phage expressing it]",,2.68,,2.19,18.2 pfu/mg,
"RYVGTLF [Peptide P2, 7-amino-acid loop peptide from irradiated population; tested as Cy5.5-labeled M13 phage expressing it]",38.83,,9.05,,,6.3 pfu/mg
"TVRTSAD [Peptide P1, 7-amino-acid loop peptide from irradiated population; tested as Cy5.5-labeled M13 phage expressing it]",70.66,,16.44,,,25.3 pfu/mg
